Measured values from BindingDB's records for doi:10.1016/j.ejmech.2018.09.061 (Anhui University of Chinese Medicine, 2018).

Experiment: Inhibition of MDR1 in human KB/VCR cells assessed as potentiation of vincristine-induced cytotoxicity by measuring vincristine IC50 at 25 uM after 72 hrs by Western blot analysis (Rvb = 4.21 +/- 0.33 uM)

With `CC(C)C(=O)OC(C)(C)[C@@H]1Cc2c(ccc3ccc(=O)oc23)O1` as the compound, how does the IC50 read?
Its IC50 is 560 nM.
